Tested on: 743489-274-T-PDC complex spheroid viability
Experiment: Anticancer human tumor 743489-274-T-PDC patient-derived renal cell carcinoma cell line growth inhibition
Settings: for IC50: curve of first compound; for viability, T/C: stronger effect = lower value
Text: Multicellular complex tumor spheroid response to LSD1 Inhibitor Iadademstat in combination with a variety of drugs and investigational agents in selected tumor cell lines
The current study was undertaken to assess response to LSD1 inhibitors in combination with standard-of-care drugs and investigational agents in solid tumor complex spheroid models as well as in the K-562 leukemia. Complex spheroids include a stromal component modeled by human endothelial cells (HUVEC) and fibroblasts modeled by human mesenchymal stem cells (MSCs). The concentration ranges selected for each drug and investigational agent were based upon clinically achievable concentrations if the clinical Cmax of the agent was known.
Compounds. The drugs and investigational agents used in this study are listed on Table 1. All of the agents used, including staurosporine (NSC755774) and gemcitabine (NSC613327), were obtained from the Developmental Therapeutics Program, NCI. FDA-approved anticancer drugs are available from the NCI at http://dtp.nci.nih.gov/branches/dscb/oncology_drugset_explanation.html. Drugs and investigational agents were >95% pure by proton nuclear magnetic resonance (NMR) and liquid chromatography/mass spectrometry (LC/MS). Stock solutions were prepared at 400x in DMSO, stored at -70 degrees C, and diluted in fresh medium prior to their use. The final concentration of DMSO in cell culture wells never exceeded 0.25% (v/v). The FDA-approved anticancer drug set is available from the Developmental Therapeutics Program at https://dtp.cancer.gov/organization/dscb/obtaining/available_plates.htm. All drugs and investigational agents were tested over a range starting from a high concentration at or near the clinical Cmax and decreasing in half-log increments. If the clinical Cmax for an agent had not been determined, the highest concentration tested was 10 microM.
Cell Lines. The patient-derived cancer cell (PDC) lines: 292921-168-R-J2-PDC, K24384-001-R-PDC, and 521955-158-R2-J5-PDC pancreatic carcinomas, 556581-035-R-J1 ovarian carcinoma, 324938-238-R-J1-PDC, 855422-203-R-J1-PDC and 883617-216-R-J1-PDC urothelial bladder carcinomas, 743489-274-T-PDC renal cell carcinoma, 138582-R-J1 Merkel cell tumor, K60290-347-R-J1 and K57222-313-R-J1-PDC glioblastomas, 653999-131-R-J2-PDC, LG0703-F948-PDC, and 349418-098-R-PDC non-small cell lung carcinomas, 885512-296-R-J2-PDC, 171881-019-R-J1-PDC breast carcinomas and 186277-243-T-J2-PDC and 233499-124-R-J2-PDC colon carcinomas were obtained from the NCI Patient-Derived Models Repository (PDMR, https://pdmr.cancer.gov). The established cell lines NCI/ADR-RES (RRID:CVCL_14520 and OVCAR-5 (RRID:CVCL_1628) ovarian carcinomas, 786-O (RRID:CVCL_1051) and A498 (RRID:CVCL_A498) renal cell carcinoma, NCI-H211 (ATCC, cat. CRL-5824; RRID:CVCL_1529), NCI-H196 (ATCC, cat. CRL-5823, RRID:CVCL_1509), SW 1271 (ATCC, cat. CRL-2177, RRID:CVCL_1716) and NCI-H1876 (ATCC, cat. CRL-5902, RRID:CVCL_1503) small cell lung carcinomas, MDA-MB-231 (RRID:CVCL_0062) and MDA-MB-468 (RRID:CVCL_0419)breast carcinomas (10-12). Pooled donor human umbilical vein endothelial cells (HUVEC, Lonza, cat. CC-2519) and human mesenchymal stem cells (hMSC, Lonza, cat. PT-2501) were purchased from Lonza (Walkersville, MD).
Cell Culture. All cells were maintained in an incubator at 37 degrees C and 5% CO2 with 95% humidity. The PDC lines were cultured according to standard operating procedures established by the NCI PDMR (https://pdmr.cancer.gov). Briefly all PDCs were thawed and cultured in Matrigel-coated flasks prepared with a working solution of 1X Ham's F-12 nutrient mix, without supplementation (Invitrogen, Waltham, MA, cat. 11765054), 100 U/mL penicillin-streptomycin (Invitrogen, cat. 15140122), and 2.5% Matrigel (Corning Inc., Corning, NY, cat. 354248) for the first three passages. […]
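Note: spheroids exposed to compounds for 7 days before readout.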
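Throughout, for viability, T/C: 100% = DMSO vehicle control wells.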

Nc1ncn(C2CC(O)C(CO)O2)c(=O)n1 (stereo not given) + NC1CC1c1ccc(-c2cccc(O)c2)cc1
IC50 (second compound 0.1 µM): > 1 µM | IC50 (second compound 0.316 µM): > 1 µM | IC50 (second compound 1 µM): > 1 µM | IC50 (second compound 3.16 µM): > 1 µM | IC50 (second compound 10 µM): > 1 µM | viability, T/C (second compound 0.1 µM, first compound 0.00316 µM): 109% | viability, T/C (second compound 0.1 µM, first compound 0.01 µM): 101% | viability, T/C (second compound 0.1 µM, first compound 0.0316 µM): 97.9% | viability, T/C (second compound 0.1 µM, first compound 0.1 µM): 95.1% | viability, T/C (second compound 0.1 µM, first compound 0.316 µM): 91.2% | viability, T/C (second compound 0.1 µM, first compound 1 µM): 117% | viability, T/C (second compound 0.316 µM, first compound 0.00316 µM): 104% | viability, T/C (second compound 0.316 µM, first compound 0.01 µM): 101% | viability, T/C (second compound 0.316 µM, first compound 0.0316 µM): 97.7% | viability, T/C (second compound 0.316 µM, first compound 0.1 µM): 91.5% | viability, T/C (second compound 0.316 µM, first compound 0.316 µM): 102% | viability, T/C (second compound 0.316 µM, first compound 1 µM): 95.3% | viability, T/C (second compound 1 µM, first compound 0.00316 µM): 107% | viability, T/C (second compound 1 µM, first compound 0.01 µM): 110% | viability, T/C (second compound 1 µM, first compound 0.0316 µM): 94.1% | viability, T/C (second compound 1 µM, first compound 0.1 µM): 89.6% | viability, T/C (second compound 1 µM, first compound 0.316 µM): 90% | viability, T/C (second compound 1 µM, first compound 1 µM): 93% | viability, T/C (second compound 3.16 µM, first compound 0.00316 µM): 93.2% | viability, T/C (second compound 3.16 µM, first compound 0.01 µM): 102% | viability, T/C (second compound 3.16 µM, first compound 0.0316 µM): 105% | viability, T/C (second compound 3.16 µM, first compound 0.1 µM): 88.2% | viability, T/C (second compound 3.16 µM, first compound 0.316 µM): 82.5% | viability, T/C (second compound 3.16 µM, first compound 1 µM): 86.8% | viability, T/C (second compound 10 µM, first compound 0.00316 µM): 102% | viability, T/C (second compound 10 µM, first compound 0.01 µM): 126% | viability, T/C (second compound 10 µM, first compound 0.0316 µM): 104% | viability, T/C (second compound 10 µM, first compound 0.1 µM): 99.7% | viability, T/C (second compound 10 µM, first compound 0.316 µM): 83.2% | viability, T/C (second compound 10 µM, first compound 1 µM): 88.6%

Reference: PubChem BioAssay AID1918942 (Molecular Pharmacology Branch, DTP, NCI, 2023)
